Results: publication PMC8909834, “An Orally Bioavailable and Highly Efficacious Inhibitor of CDK9/FLT3 for the Treatment of Acute Myeloid Leukemia” (Cancers, 2022)

Tests used:
MV4-11 cells = assay: Western blotting of cellular signaling pathways; format: cell-based
Procedure: (§1) Western blotting. Western blotting was performed as described previously. Briefly, cells were lysed after incubation with different concentrations of compounds or control (0.1% DMSO) at the indicated times, samples were denatured at 95 °C for 5 min, and proteins having different molecular weights within each sample were separated by electrophoresis (Bio-Rad, Hercules, CA, USA) on polyacrylamide gels (4–20%, Bio-Rad). Resolved proteins were electrophoretically transferred onto a PVDF membrane and blocked by incubating with 10% w/v non-fat powdered milk dissolved in 1 × Tris-buffered saline-tween 20 (TBST) for 1 h at room temperature prior to incubating overnight with primary antibodies at 4 °C with slight shaking. Chemiluminescence was detected with a ChemiDoc^TM gel imaging system after the membranes have been exposed to ECL substrates (GE Healthcare, PA, USA), and the Image Lab software (Bio-Rad) was used for image capture. The primary antibodies used were: β-Actin (Invitrogen, Cat MA515739, 1:5000), β-Tubulin (Cell Signaling Technology, Cat 2146, 1:1000), AKT (Cell Signaling Technology, Cat 9272, 1:1000), c-MYC (Cell Signaling Technology, Cat 5605, 1:1000), Caspase-3 (Cell Signaling Technology, Cat 9665, 1:1000), Cleaved PARP (Cell Signaling Technology, Cat 5625, 1:1000), ERK1/2 (p44/42 MAPK, Cell Signaling Technology, Cat 4695, 1:1000), GAPDH (Invitrogen, Cat PA1987, 1:1000), MCL-1 (Cell Signaling Technology, Cat 942965, 1:1000), PARP (Cell Signaling Technology, Cat 9532, 1:1000), Phospho-AKT (Ser473) (Cell Signaling Technology, Cat 9271, 1:1000), Phospho-ERK (Thr202/Tyr204) (Cell Signaling Technology, Cat 4370, 1:1000), Phospho-FLT3 (Tyr591) (Cell Signaling Technology, Cat 3461, 1:1000), Phospho-STAT5 (Tyr694) (Cell Signaling Technology, Cat 9359, 1:1000), RNAP II CTD (BioLegend (CA, USA), Cat 664906, 1:1000), RNAP II CTD Phospho-Ser2 (BioLegend, Cat 920204, 1:1000), RNAP II CTD Phospho-Ser5 (Abcam, Cat ab5408, 1:1000), STAT5 (Cell Signaling Technology, Cat 9363, 1:1000), and XIAP (Cell Signaling Technology, Cat 14334, 1:1000). Bands were quantified using ImageJ software (US National Institutes of Health, Bethesda, MD, USA).

MOLM-13 cells = assay: Western blotting of cellular signaling pathways; format: cell-based; details: MOLM-13, 24 h, concentration-dependent
Procedure: as §1

MST1 = target: T1, MST1 (Homo sapiens, UniProt Q13043); assay: Ki determination for kinases with greater than 90% inhibition (Reaction Biology); format: biochemical; details: calculated from IC50 using the Cheng-Prusoff equation
T1 construct: purchased Reaction Biology Corporation (contract assay)
Procedure: (§2) Kinase assay. The ADP Glo^TM kinase assay (Promega, Madison, WI, USA) was used to assess the inhibition by CDDD11-8 of CDKs 1, 2, 4, 6, 7, and 9, as well as the mutant isoforms of FLT3. The assays were performed in accord with the manufacturer’s protocol (Promega) as described previously. Briefly, serial three-fold dilutions of CDDD11-8 were prepared in 100% DMSO from a 2 mM stock solution, followed by 1:40 dilution into Milli-Q water. Subsequently, 1 µL of each sample was incubated with 4 µL of kinase mixture containing a particular CDK enzyme and its substrate, standard kinase buffer [3 mM MgCl2, 50 mM HEPES-NaOH pH 7.5, 3 mM MnCl2, 3 µM Na-orthovanadate, 1 mM dithiothreitol (DTT)], kinase dilution buffer (containing 0.25 mg/mL PEG20,000, 50 mM HEPES-NaOH pH 7.5, 1 mM DTT), and ATP at 37 °C for 30 to 40 min. The final reaction mixture contained 0.5% DMSO in all samples, and the applied kinase concentrations were 1, 1, 10, 40, 20, and 50 nM for CDK1, 2, 4, 6, 7, and 9, respectively. The reaction was stopped by adding ADP-Glo reagent and the mixture was incubated further in the dark at room temperature for 40 min. As a final step, kinase detection reagent was added to each mixture and incubated at room temperature for 30 to 60 min. Luminescence was read using an EnVision® multilabel plate reader (PerkinElmer, Beaconsfield, UK), and half-maximum inhibitory concentrations (IC50) were calculated using a non-linear regression model with a variable slope, plotting log (inhibitor concentration) vs. response using the following formula: Ar%=Bottom+Top−Bottom/1+Inhibitor Concentration/IC50^HillSlope where the relative activity Ar (%) is the signal relative to the controls, IC50 is the half maximum concentration, Hillslope is the steepness of the dose-response curve, Top and Bottom are plateaus reflecting the maximum and minimum in responses on the Y-axis (GraphPad Prism version 7, San Diego, CA, USA). Ki values were calculated from the IC50 using the Cheng−Prusoff equation [32]. Extensive specificity assessment was carried out by Reaction Biology Corporation (Malvern, PA, USA) with 369 kinases using 1 µM CDDD11-8 concentration in a Kinase Hotspot radiolabel assay (for experimental details, please see (Reaction Biology https://www.reactionbiology.com/). Subsequently, Ki values were determined for kinases with greater than 90% inhibition.

TNIK = target: T2, TNIK (Homo sapiens, UniProt Q9UKE5); assay: as above; format: biochemical; details: calculated from IC50 using the Cheng-Prusoff equation
T2 construct: purchased Reaction Biology Corporation (Kinase HotSpot)
Procedure: as §2

GLK = target: T3, GLK (Homo sapiens, UniProt Q8IVH8); assay: as above; format: biochemical; details: calculated from IC50 using the Cheng-Prusoff equation
T3 construct: purchased Reaction Biology Corporation (contract assay)
Procedure: as §2

MINK = target: T4, MINK (Homo sapiens, UniProt Q8N4C8); assay: as above; format: biochemical; details: calculated from IC50 using the Cheng-Prusoff equation
T4 construct: purchased Reaction Biology Corporation (contract assay)
Procedure: as §2

TRKC = target: T5, TRKC (Homo sapiens, UniProt Q16288); assay: as above; format: biochemical; details: calculated from IC50 using the Cheng-Prusoff equation
T5 construct: purchased Reaction Biology Corporation (contract assay)
Procedure: as §2

NUAK1 = target: T6, NUAK1 (Homo sapiens, UniProt O60285); assay: as above; format: biochemical; details: calculated from IC50 using the Cheng-Prusoff equation
T6 construct: purchased Reaction Biology Corporation (contract assay)
Procedure: as §2

[1] = test system: other members of the CDK family; assay: ADP Glo kinase assay, CDK selectivity; format: biochemical, human; details: ratio of potency
Procedure: Kinase assay. The ADP Glo^TM kinase assay (Promega, Madison, WI, USA) was used to assess the inhibition by CDDD11-8 of CDKs 1, 2, 4, 6, 7, and 9, as well as the mutant isoforms of FLT3. The assays were performed in accord with the manufacturer’s protocol (Promega) as described previously. Briefly, serial three-fold dilutions of CDDD11-8 were prepared in 100% DMSO from a 2 mM stock solution, followed by 1:40 dilution into Milli-Q water. […] Luminescence was read using an EnVision® multilabel plate reader (PerkinElmer, Beaconsfield, UK), and half-maximum inhibitory concentrations (IC50) were calculated using a non-linear regression model with a variable slope, plotting log (inhibitor concentration) vs. response using the following formula: Ar%=Bottom+Top−Bottom/1+Inhibitor Concentration/IC50^HillSlope where the relative activity Ar (%) is the signal relative to the controls, IC50 is the half maximum concentration, Hillslope is the steepness of the dose-response curve, Top and Bottom are plateaus reflecting the maximum and minimum in responses on the Y-axis (GraphPad Prism version 7, San Diego, CA, USA). Ki values were calculated from the IC50 using the Cheng−Prusoff equation [32]. […]

[2] = Partition coefficient by shake flask assay; format: physicochemical; details: octanol/aqueous phase, pH 7.4, read-out: Partition Coefficient LogD7.4 (octanol)
[3] = MV4-11, time-course, within 2 h

T6 sequence (O60285 whole entry): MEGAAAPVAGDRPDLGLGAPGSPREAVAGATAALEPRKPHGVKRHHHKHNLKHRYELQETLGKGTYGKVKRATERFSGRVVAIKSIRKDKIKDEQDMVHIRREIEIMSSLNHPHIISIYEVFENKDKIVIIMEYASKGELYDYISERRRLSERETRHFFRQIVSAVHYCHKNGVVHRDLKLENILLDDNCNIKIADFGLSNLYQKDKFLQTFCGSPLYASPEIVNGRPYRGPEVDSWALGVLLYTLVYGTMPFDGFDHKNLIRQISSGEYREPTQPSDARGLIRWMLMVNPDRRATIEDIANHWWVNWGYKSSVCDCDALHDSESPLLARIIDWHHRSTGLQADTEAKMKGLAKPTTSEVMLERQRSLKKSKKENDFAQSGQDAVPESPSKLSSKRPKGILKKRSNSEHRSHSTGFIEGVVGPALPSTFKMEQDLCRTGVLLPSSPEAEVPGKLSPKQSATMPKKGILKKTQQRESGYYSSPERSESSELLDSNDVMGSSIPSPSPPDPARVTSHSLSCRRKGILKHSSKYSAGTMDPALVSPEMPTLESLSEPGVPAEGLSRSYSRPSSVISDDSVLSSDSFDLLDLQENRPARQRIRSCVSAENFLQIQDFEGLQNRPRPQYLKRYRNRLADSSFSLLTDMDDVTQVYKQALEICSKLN
T2 sequence (Q9UKE5 whole entry): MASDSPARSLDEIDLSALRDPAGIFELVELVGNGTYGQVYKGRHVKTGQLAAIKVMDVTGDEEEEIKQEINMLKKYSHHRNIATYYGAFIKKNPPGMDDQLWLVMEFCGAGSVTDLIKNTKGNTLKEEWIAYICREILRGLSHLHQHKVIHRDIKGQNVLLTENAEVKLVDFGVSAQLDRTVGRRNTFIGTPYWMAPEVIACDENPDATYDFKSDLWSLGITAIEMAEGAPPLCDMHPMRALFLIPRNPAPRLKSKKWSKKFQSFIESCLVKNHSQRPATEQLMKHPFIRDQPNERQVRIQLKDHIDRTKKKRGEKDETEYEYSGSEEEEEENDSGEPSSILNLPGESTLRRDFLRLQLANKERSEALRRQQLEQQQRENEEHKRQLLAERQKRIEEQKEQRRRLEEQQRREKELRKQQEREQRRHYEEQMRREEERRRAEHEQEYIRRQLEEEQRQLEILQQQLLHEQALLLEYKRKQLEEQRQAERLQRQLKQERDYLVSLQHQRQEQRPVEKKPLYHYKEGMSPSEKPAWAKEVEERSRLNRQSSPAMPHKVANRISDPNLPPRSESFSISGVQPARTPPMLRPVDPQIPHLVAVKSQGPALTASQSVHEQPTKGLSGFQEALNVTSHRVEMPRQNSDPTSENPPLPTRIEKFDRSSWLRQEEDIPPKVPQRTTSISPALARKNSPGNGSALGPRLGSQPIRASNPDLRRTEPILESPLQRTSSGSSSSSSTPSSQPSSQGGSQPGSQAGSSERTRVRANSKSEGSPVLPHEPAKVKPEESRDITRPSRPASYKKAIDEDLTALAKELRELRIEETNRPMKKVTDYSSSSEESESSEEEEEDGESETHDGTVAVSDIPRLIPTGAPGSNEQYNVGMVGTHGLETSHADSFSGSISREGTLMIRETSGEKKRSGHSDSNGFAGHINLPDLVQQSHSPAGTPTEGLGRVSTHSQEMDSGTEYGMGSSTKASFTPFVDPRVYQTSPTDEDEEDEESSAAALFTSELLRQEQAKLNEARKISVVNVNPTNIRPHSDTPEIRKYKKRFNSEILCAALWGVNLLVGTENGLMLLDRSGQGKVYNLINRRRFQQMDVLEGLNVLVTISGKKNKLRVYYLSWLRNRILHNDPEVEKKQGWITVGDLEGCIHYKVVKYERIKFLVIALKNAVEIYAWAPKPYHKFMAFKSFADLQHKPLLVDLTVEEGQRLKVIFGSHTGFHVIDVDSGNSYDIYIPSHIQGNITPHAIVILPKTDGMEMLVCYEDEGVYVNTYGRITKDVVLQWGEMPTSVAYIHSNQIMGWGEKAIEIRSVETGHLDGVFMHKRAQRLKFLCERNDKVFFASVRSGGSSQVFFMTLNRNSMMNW
T1 sequence (Q13043 whole entry): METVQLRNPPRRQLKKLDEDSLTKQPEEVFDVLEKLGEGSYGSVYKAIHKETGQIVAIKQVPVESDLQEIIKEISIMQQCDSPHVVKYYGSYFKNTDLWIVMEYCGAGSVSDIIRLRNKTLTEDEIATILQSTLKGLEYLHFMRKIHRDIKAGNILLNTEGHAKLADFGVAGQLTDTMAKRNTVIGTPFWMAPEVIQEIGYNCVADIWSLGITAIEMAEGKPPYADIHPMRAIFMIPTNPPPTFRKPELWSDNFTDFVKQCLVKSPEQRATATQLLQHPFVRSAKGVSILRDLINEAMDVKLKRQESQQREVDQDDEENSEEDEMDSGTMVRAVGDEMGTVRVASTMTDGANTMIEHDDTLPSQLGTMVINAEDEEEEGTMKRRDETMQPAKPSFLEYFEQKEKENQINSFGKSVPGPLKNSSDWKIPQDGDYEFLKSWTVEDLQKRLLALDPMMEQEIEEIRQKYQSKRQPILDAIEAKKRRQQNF
T3 sequence (Q8IVH8 whole entry): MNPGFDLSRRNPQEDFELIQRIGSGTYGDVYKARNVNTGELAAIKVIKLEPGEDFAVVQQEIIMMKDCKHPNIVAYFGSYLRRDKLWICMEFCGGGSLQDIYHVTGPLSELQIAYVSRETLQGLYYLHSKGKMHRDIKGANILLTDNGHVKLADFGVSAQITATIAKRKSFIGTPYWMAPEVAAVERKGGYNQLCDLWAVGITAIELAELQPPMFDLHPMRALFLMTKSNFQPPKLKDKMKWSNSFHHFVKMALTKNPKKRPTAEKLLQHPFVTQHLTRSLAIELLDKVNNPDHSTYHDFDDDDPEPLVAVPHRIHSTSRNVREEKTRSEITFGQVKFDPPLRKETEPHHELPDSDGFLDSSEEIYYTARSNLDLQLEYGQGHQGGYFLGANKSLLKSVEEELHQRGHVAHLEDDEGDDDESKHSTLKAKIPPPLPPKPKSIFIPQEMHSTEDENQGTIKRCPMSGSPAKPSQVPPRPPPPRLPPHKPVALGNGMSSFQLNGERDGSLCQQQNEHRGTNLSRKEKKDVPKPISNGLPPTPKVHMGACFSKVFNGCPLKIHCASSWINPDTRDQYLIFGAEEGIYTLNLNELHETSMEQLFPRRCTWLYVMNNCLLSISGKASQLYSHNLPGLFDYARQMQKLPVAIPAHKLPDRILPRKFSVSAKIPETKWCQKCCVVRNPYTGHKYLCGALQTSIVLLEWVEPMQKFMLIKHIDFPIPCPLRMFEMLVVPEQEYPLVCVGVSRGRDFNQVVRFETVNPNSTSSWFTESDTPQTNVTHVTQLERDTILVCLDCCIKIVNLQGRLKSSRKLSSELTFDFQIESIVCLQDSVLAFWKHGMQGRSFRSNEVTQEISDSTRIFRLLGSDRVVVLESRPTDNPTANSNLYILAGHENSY
T5 sequence (Q16288 32-839): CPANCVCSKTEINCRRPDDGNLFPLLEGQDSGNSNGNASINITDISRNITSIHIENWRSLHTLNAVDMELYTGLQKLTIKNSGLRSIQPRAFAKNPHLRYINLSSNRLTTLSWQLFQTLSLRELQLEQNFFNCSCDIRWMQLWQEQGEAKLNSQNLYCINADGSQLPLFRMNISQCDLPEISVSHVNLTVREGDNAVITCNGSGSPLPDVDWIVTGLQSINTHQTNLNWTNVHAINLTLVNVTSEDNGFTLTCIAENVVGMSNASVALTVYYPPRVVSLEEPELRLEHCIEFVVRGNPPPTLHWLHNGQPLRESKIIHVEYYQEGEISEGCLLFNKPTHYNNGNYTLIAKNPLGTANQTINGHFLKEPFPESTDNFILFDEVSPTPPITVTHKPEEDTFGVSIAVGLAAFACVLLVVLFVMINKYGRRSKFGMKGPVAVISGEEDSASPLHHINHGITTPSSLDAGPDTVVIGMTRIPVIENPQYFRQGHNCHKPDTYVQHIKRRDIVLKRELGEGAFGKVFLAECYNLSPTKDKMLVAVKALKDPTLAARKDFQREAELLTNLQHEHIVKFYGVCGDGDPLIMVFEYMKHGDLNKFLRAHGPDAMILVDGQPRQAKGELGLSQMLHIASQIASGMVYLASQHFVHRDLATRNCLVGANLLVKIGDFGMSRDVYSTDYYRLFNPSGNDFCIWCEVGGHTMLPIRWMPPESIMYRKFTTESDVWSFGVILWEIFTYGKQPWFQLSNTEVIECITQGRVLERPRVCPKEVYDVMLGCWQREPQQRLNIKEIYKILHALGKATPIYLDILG

Cc1cnc(N[C@H]2CC[C@H](N)CC2)nc1-c1cnc2ccc(-c3ccccc3)cn12 [CDDD11-8]
level of p-FLT3 Tyr591 (MV4-11 cells; MV4-11): reduced
expression of MCL-1 (MV4-11 cells; MV4-11, 1 µM, 24 h): reduced to almost undetectable levels
expression of XIAP (MV4-11 cells; MV4-11, 1 µM, 24 h): reduced to almost undetectable levels
expression of c-MYC (MV4-11 cells; MV4-11, 0.3 and 1 µM, as early as 2 h): completely blocked
reduction of p-RNAP II Ser2 level (MV4-11 cells; [3]): approximately 20%
reduction of p-RNAP II Ser5 level (MV4-11 cells; [3]): approximately 20%
phosphorylation of RNAP II CTD at Ser2 and Ser5 (MOLM-13 cells): suppressed
Ki (MST1): 9 nM
Ki (TNIK): 3 nM
Ki (GLK): 28 nM
Ki (MINK): 14 nM
Ki (TRKC): 10 nM
Ki (NUAK1): 12 nM
selectivity for CDK9 over other members of the CDK family [1]: > 50 fold
logD [2]: 1.87
